The target of data set [1] is T1, UT-B (Mus musculus, UniProt Q8VHL0).
T1 construct: endogenous in cells; host or cells: erythrocytes from wild-type C57BL/6 mice
T1 sequence (Q8VHL0 1-384): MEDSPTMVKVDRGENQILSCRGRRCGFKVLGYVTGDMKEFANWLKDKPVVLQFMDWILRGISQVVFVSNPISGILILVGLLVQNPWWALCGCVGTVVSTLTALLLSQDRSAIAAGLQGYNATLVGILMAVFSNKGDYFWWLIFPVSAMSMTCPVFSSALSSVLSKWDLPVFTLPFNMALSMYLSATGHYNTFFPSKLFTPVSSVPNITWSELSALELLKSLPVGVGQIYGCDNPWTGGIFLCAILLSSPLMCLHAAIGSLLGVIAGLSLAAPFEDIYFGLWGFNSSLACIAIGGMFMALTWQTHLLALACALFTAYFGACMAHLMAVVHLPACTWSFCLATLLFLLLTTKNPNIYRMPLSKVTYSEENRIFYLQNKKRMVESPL
Kind of data set: Erythrocyte lysis assay for UT-B inhibition, mouse erythrocytes. The data set is classed as cell-based. As to conditions: erythrocyte lysis model; mouse; n = 3, means; read-out: IC50 (μM) Mouse. How it is done:
(§1) The erythrocyte lysis assay was modified from a method described previously. Erythrocytes obtained from veins were diluted to a hematocrit value of 2% in hyperosmolar PBS containing 1.25 mol/L urea and 5 mmol/L glucose and incubated at r.t. for 2 h. Then, 99 μL erythrocyte suspension from a reservoir was added to each well of a 96-well round-bottom microplate, then 1 μL of the testing compound (500, 125, 31.25, 7.81, 1.95, 0.488, 0.122, 0.031, 0.0076 μmol/L dissolved in DMSO) was added to erythrocyte suspension and shook it up with microoscillator for 1 min. Following 5 min incubation, 20 μL erythrocyte suspension was transferred into 96-well black microplates preloaded with 180 μL isotonic PBS (10 mM, urea-free). Erythrocyte lysis was monitored at 710 nm optical density (OD710) for 6 min, with lysis rates calculated using control values from the same plate as Equation (1):Lysis (%) = 100 × (Aneg − Atest)/(Aneg − Apos)(1) where Atest is the absorbance value from the test well, Aneg is from a negative no-lysis control well, and Apos is from a positive full-lysis control.

In data set [2] the target is T2, UT-B (Rattus norvegicus, UniProt P97689).
T2 construct: endogenous in cells; host or cells: erythrocytes from male SD rats
T2 sequence (P97689 1-384): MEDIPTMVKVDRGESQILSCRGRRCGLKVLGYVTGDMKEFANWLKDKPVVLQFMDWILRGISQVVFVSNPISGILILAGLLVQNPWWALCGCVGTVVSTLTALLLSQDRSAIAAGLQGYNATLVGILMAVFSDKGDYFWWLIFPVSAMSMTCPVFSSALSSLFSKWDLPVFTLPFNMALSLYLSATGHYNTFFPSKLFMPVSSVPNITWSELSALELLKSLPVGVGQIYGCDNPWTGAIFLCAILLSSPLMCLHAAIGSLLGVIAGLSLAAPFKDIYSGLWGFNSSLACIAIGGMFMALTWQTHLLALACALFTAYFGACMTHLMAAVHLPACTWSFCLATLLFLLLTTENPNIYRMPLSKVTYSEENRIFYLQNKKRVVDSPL
Kind of data set: Erythrocyte lysis assay for UT-B inhibition, rat erythrocytes. As to conditions: erythrocyte lysis model; rat; n = 3, means; read-out: IC50 (μM) Rat. The data set is classed as cell-based. As to the method: as §1

Details of data set [3]: method as in PMID 35458649. Conditions: 25a, comparison value; cited from earlier work.
The test system of data set [4] is rat hyponatremia model caused by SIADH. Kind of data set: Rat hyponatremia model caused by SIADH (dDAVP). The data set is classed as in vivo. How it is done:
The protocol for dDAVP-induced hyponatremia was adapted from a previous study, with tolvaptan chosen as the positive control. Preliminary experiments determined the dose of dDAVP (0.25 ng/h). Under isoflurane anesthesia, a 0.5 μg/mL dDAVP solution was injected subcutaneously using an osmotic minipump (ALZET 2002, Cupertino, CA, USA; 200 μL, low rate of 0.5 μL/h for […]). Rats were housed individually in metabolic cages to collect urine. Before using the pump, they were given 62.5 mL/d 1.0 kcal/mL of liquid food. After pump implantation, the rats received 40 mL of 2.1 kcal/mL of liquid feed daily. The rats were divided into five groups: control group (sham operation), model group (0.5% poloxamer, solvent), 4 mg/kg tolvaptan group, 4 mg/kg E3 group, and 20 mg/kg E3 group. E3 was administered orally every 8 h, while tolvaptan was given intragastrically once daily. At the end of the experiment, the rats were sacrificed.

The test system of data set [5] is mice. Kind of data set: Mouse sperm malformation assay. Conditions: mice; day 35; E3 2000 mg/kg/day oral for 5 days; CP 50 mg/kg i.p.; vs control. As to the method: Male mice were randomly divided into three groups: control group (0.5% CMC-Na), E3 2000 mg/kg group, and positive group (50 mg/kg cyclophosphamide (CP), administered via intraperitoneal injection). E3 and the control group were administered once daily by intragastric gavage. All mice received treatment for 5 consecutive days. After the initial dosing period, […], the mice were euthanized, and evaluation of sperm parameters was performed as follows:
Caudal epididymides were dissected into fragments in physiological saline and incubated (37 °C, 5% CO2, 10 min). Spermatozoa were isolated through nylon mesh filtration. Semen parameters were quantified using computer-assisted semen analysis (CASA). Eosin-stained smears (20 μL sperm suspension) were analyzed to examine sperm morphology. […] Sperm shape abnormalities, such as banana, headless, without a hook, amorphous, double-tailed, and fat head, were identified and counted. In addition, the testis was reserved for morphological analysis. The spermatogenesis was graded from 1 to 10 using the Johnsen score.

[6] abbreviates: SIADH rats, E3 4 or 20 mg/kg every 8 h, tolvaptan 4 mg/kg once daily, vs model rats.

The values below come from article PMC12024912, “Druggability Studies of Benzene Sulfonamide Substituted Diarylamide (E3) as a Novel Diuretic” (Biomedicines, 2025).

For `CC(=O)c1ccc(C(=O)Nc2ccc(NS(=O)(=O)c3ccccc3)cc2)o1` [Compound E5], the 50% inhibitory concentration (IC50) (as a rule, the concentration at which inhibition is half-maximal) in data set [1] was found to be 0.23 µM; in data set [2], 0.06 µM.

Regarding `CC(=O)c1ccc(C(=O)Nc2ccc(S(=O)(=O)Nc3ccc(OCCN4CCOCC4)cc3)cc2)o1` [Compound E8], the IC50 in data set [1] was found to be 2.55 µM; in data set [2], 0.77 µM.

As to `CC(=O)c1ccc(C(=O)Nc2ccc(S(=O)(=O)Nc3ccccc3)cc2)o1` [Compound E7], the IC50 in data set [1] was found to be 0.23 µM; in data set [2] it was 0.09 µM.

Take `CC(=O)c1ccc(C(=O)Nc2ccc(NS(=O)(=O)c3ccccc3)c(O)c2)o1` [Compound E6]: the IC50 in data set [1] stood at 0.18 µM; in data set [2], 0.05 µM.

`CC(=O)c1ccc(C(=O)Nc2ccc(S(=O)(=O)Nc3ccc(OCCCN4CCOCC4)cc3)cc2)o1` [Compound E9]: the IC50 is 4.07 µM in data set [1] and 1.75 µM in data set [2].

Regarding `CC(=O)Nc1ccc(NC(=O)c2ccc(C(C)=O)o2)cc1` [Compound 25a, N-(4-acetamidophenyl)-5-acetylfuran-2-carboxamide], in data set [3], the half-life (as a rule, how long it takes for the measured level to halve) is 2.86 h and the tmax time is recorded as 0.25 h.

Take `CCN1CCN(c2ccc(NC(=O)c3ccc(C(C)=O)o3)cc2)CC1` [Compound E1]: the IC50 in data set [1] turned out to be 0.86 µM; in data set [2], 0.32 µM.

Consider `CC(=O)c1ccc(C(=O)Nc2ccc(C(=O)NCCN(C)C)cc2)o1` [Compound E2], for which the IC50 in data set [1] came to 2.41 µM; in data set [2], 0.4 µM.

As to `CC(=O)c1ccc(C(=O)Nc2ccccc2NS(=O)(=O)c2ccccc2)o1` [Compound E4], the results for the half-maximal inhibitory concentration (IC50) in data set [1] and in data set [2] were over 10 µM and 6.46 µM, respectively.

As for `Cc1ccccc1C(=O)Nc1ccc(C(=O)N2CCCC(O)c3cc(Cl)ccc32)c(C)c1` (stereo not drawn) [tolvaptan, reference compound], the “hyponatremia in SIADH rats” value in data set [4] (E3 4 or 20 mg/kg orally every 8 h, tolvaptan 4 mg/kg once daily, vs model) is “significantly alleviated”. In data set [4] (setting [6]), the serum osmolality result was “significantly increased” and the serum sodium concentration entry is recorded as “significantly increased”. Also, the blood urea levels result in data set [4] (SIADH rats, between experimental groups before and after treatment) is recorded as “no significant difference”. Moreover, in data set [4] (SIADH rats, except dilatation of collecting ducts), the “H&E staining of kidney and liver” value is listed as “normal tissue structures”.

Take `O=P1(N(CCCl)CCCl)NCCCO1` (stereo not drawn) [cyclophosphamide (CP), cyclophosphamide, reference compound]: in data set [5], the “testicular and epididymal indices, sperm motility, abnormal morphology, sperm counts, Johnsen score” value is reported as “caused abnormalities”.
